Laboratory results as given in patent US20140113342A1, “Production of 1,2-Propanediol in Cyanobacteria” (Algenol Biofuels Inc., priority 2012, published 2014).

What was measured:
[1] = test system: Synechococcus sp. PCC 7002; assay: Tolerance testing to 1,2-propanediol added to culture medium; format: cell-based; details: one week
Excerpt: (§1) The tolerance of cyanobacterial strains PCC 6803 and PCC 7002 to the presence of accumulated 1,2-propanediol in the culture medium was examined by adding a one time bolus of varying amounts of 1,2-propanediol (1%, 2%, 3% and 5%) to exponential phase cultures and comparing the growth of these cultures to a wild type culture with no addition. Growth was monitored by optical density (OD750) for one week. […] PCC 7002.

[2] = test system: Synechocystis sp. PCC 6803; assay: as above; format: cell-based; details: one week
Excerpt: as §1

[3] = 1%, 2%, 3% and 5% 1,2-propanediol
[4] = up to 3% 1,2-propanediol, one time bolus to exponential phase culture

CC(O)CO (centres unmarked) [1,2-propanediol]
lethal effect (complete bleaching) [1, 3]: No lethal effect
growth of cultures (OD750) compared to wild type culture with no addition [1, 4]: no difference in the growth
lethal effect (complete bleaching) [2, 3]: No lethal effect
growth of cultures (OD750) compared to wild type culture with no addition ([2]; 5% 1,2-propanediol, one time bolus): less growth, discoloration and clumping
growth of cultures (OD750) compared to wild type culture with no addition [2, 4]: no difference in the growth
